Assay results: publication PMC5720837, “Identification of a 4-fluorobenzyl L-valinate amide benzoxaborole (AN11736) as a potential development candidate for the treatment of Animal African Trypanosomiasis (AAT)” (Bioorganic & Medicinal Chemistry Letters, 2018)
Where “and” joins values, the source holds several entries; their conditions need not be identical. Equal values may be shown once.

What was measured:
[1] = system: T. c. parasites (STIB736/IL1180 strain); experiment: In vivo mouse model of T. congolense infection; set-up: species or system NMRI female mice; conditions: for Efficacy in mouse model T. c., n/m (mice survived / total mice in group): intraperitoneal, monitored 60 days post treatment; for cure of T. c.-infected mice: single 5 mg/kg dose
Procedure: (§1) Selected compounds were screened in both mouse and bovine in vitro metabolic stability assays (mouse S9 and bovine S9), as summarized in Table 2. These two species were chosen because the primary in vivo assays were conducted in mice, and the target animal of this research program is cattle. […] We evaluated the efficacy of selected compounds in two in vivo mouse models of infection, against T. congolense and T. vivax, respectively. Mice were infected with either 1 × 10^5 T. c. parasites or 1 × 10^4 T. v. parasites, and then treated with a test compound via intraperitoneal administration for 1, 2 or 4 consecutive days. The mice were then monitored for the presence of parasitemia for up to 60 days post treatment.[7] We tested in T. c. model first, then followed up with T. v. for interesting compounds. […] We selected compound 5 (AN11736) to progress to exploratory studies to determine the efficacy and safety in a preliminary formulation against induced infections of T. vivax and T. congolense in cattle.[8]
(§2) [7] Methods for testing compound efficacy in mouse models: In vivo mouse efficacy studies were performed at the Swiss TPH, using established mouse models of infection for T. c. and T. v. NMRI female mice were independently infected either with 1 × 10^5T. c. parasites/mouse (STIB736/IL1180 strain) or 1 × 10^4T. v. parasites/mouse (STIB719/ILRAD560 strain) using an intraperitoneal route. Parasitemia was allowed to develop over 7 days (T. c.) or 3 days (T. v.), respectively, before treatment was administered. Compounds were administered via intraperitoneal injection in 10% DMSO/water. Four mice were used per treatment group. Mice were monitored for the presence of trypanosomes, via tail blood examination microscopically with twice-per-week parasitemia checks for 60 days post treatment. Parasitemia was graded on a scale of 0–3, with 0 indicating no trypanosomes seen in 20 fields of view, 1 indicating the presence of 1–5 trypanosomes per field, 2 indicating the presence of 6–20 trypanosomes per field and 3 indicating greater than 20 trypanosomes per field. Mice scoring 2 or 3 were immediately euthanized. After 60 days, aparasitemic mice were considered cured. Untreated control mice survive on average for 10 and 6 days post infection for T. c. and T. v., respectively. All in vivo mouse experiments were conducted in accordance with the strict guidelines set out by the Swiss Federal Veterinary Office, under the ethical approval of license number #2813.

[2] = system: Trypanosoma congolense (T. congolense IL-3000 strain), bloodstream form; experiment: Whole cell Alamar Blue assay, T. congolense (72 h in vitro); format: cell-based; conditions: T. congolense IL-3000, 72 h in vitro Alamar Blue assay
Procedure: (§3) Activity of compounds 1–71 against T. congolense and T. vivax was determined using the whole cell assays as described ^6 and their IC50 values are summarized in Table 1.
(§4) [6] Assay methods for determination of T. c. and T. v. […] Culture media consisted of complete HMI-9 (IMDM) with 20% bovine serum. To ensure log growth phase, trypanosomes were sub-cultured at appropriate dilutions every 2–3 days. Bloodstream form Trypanosoma vivax (T. vivax) cannot be cultured axenically, therefore trypanosomes (T. vivax STIB719/ILRAD 560 strain) were harvested from a highly parasitemia mouse via cardiac puncture and used directly in the ex vivo drug sensitivity assay on the same day. […] Parasite starting concentrations of 2 × 10^5 (T. c.) and 4 × 10^5 (T. v.) were calculated respectively, using a cell analyzer system or haemo-cytometer, followed by quantification at 536 nm excitation and 588 nm emission wavelengths using a […] reader. Test compounds were prepared as 10 mg/mL DMSO stocks for each assay run. Compounds were assayed in at least three separate, independent test runs and an 11-point dilution curve was used to determine the IC50 values. Data points were averaged to generate sigmoidal dose-response curves and IC50 values were determined using Softmax Pro 5.2 software.

[3] = system: T. vivax; experiment: Efficacy against induced T. vivax infection in cattle; format: in vivo; conditions: single intramuscular injection of 10 mg/kg, 100 days post treatment
Procedure: as §1
(§5) [8] Method for testing compound efficacy in cattle: The cattle studies were conducted in accordance with the method described for cattle by Eisler et al. (2001) in studies conducted in fly-proof facilities and using T. congolense and T. vivax isolates that had previously been confirmed resistant in cattle to diminazine (7 mg/kg live weight) and/or isometamidium (1 mg/kg live weight). […]

[4] = In vitro metabolic stability, bovine S9; format: in vitro ADME; conditions: S9 fraction
Procedure: as §1

[5] = system: T. congolense; experiment: Efficacy against induced T. congolense infection in cattle; format: in vivo; conditions: single intramuscular injection of 10 mg/kg, 100 days post treatment
Procedure: as §1, §5

[6] = system: Trypanosoma vivax (T. vivax STIB719/ILRAD 560 strain), bloodstream form; experiment: Whole cell Alamar Blue assay, T. vivax (48 h ex vivo); format: cell-based; conditions: Trypanosoma vivax; T. vivax STIB719/ILRAD 560, 48 h ex vivo Alamar Blue assay
Procedure: as §3, §4

[7] = In vitro metabolic stability, mouse S9; format: in vitro ADME; conditions: S9 fraction
Procedure: as §1

[8] = system: T. v. parasites (STIB719/ILRAD560 strain); experiment: In vivo mouse model of T. vivax infection; set-up: species or system NMRI female mice; conditions: for Efficacy in mouse model T. v., n/m (mice survived / total mice in group): intraperitoneal, monitored 60 days post treatment; for curative efficacy in the T. v.-infected mouse model: single dose of 10 mg/kg, IP
Procedure: as §1, §2

| SMILES | Efficacy in mouse model T. c., n/m (mice survived / total mice in group) ([1]; 1 × 5 mg/kg) | Efficacy in mouse model T. c., n/m (mice survived / total mice in group) ([1]; 1 × 10 mg/kg) | Efficacy in mouse model T. c., n/m (mice survived / total mice in group) ([1]; 2 × 10 mg/kg) | cure of T. c.-infected mice ([1]; IP) | IC50 [2] [nM] | IC50 ([2]; Trypanosoma congolense, 72 h) [nM] | curative efficacy against T. vivax in cattle [3] [%] | microsomal CLint [4] [µL/min/mg] | curative efficacy against T. congolense in cattle [5] [%] | IC50 [6] [nM] | microsomal CLint [7] [µL/min/mg] | Efficacy in mouse model T. v., n/m (mice survived / total mice in group) ([8]; 1 × 10 mg/kg, 10 mg/kg) | Efficacy in mouse model T. v., n/m (mice survived / total mice in group) ([8]; 2 × 10 mg/kg) | curative efficacy in the T. v.-infected mouse model [8] [%] | curative efficacy in the T. c.-infected mouse model ([1]; single dose of 10 mg/kg, IP) [%] | Efficacy in mouse model T. v., n/m (mice survived / total mice in group) ([8]; 1 × 10 mg/kg) |
| --- | --- | --- | --- | --- | --- | --- | --- | --- | --- | --- | --- | --- | --- | --- | --- | --- |
| Cc1c(C(=O)N[C@H](C(=O)OCc2ccc(F)cc2)C(C)C)ccc2c1B(O)OC2 [Compound 5, 4-fluorobenzyl (1-hydroxy-7-methyl-1,3-dihydrobenzo[c][1,2]oxaborole-6-carbonyl)-L-valinate] | 0/4 | 4/4 | 5/5 | unable to cure | 0.14 | 0.15 | 100 | 9.3 | 100 | 1.3 | 5.4 | 5/5 and 4/4 | 5/5 | 100 | – | – |
| Cc1c(C(=O)N[C@H](C(=O)OCC2CCCCC2)C(C)C)ccc2c1B(O)OC2 [Compound 62] | – | 2/4 (1 × 10) | – | – | – | 0.38 | – | 20 | – | 0.16 | 10 | – | – | 100 | ≥ 50 | 4/4 (1 × 10) |
| Cc1c(C(=O)N[C@H](C(=O)OCc2ccc(C(F)(F)F)nc2)C(C)C)ccc2c1B(O)OC2 [Compound 33] | – | 3/4 (1 × 10) | – | – | – | 0.28 | – | 2 | – | 26 | 6.3 | – | – | 100 | – | 4/4 (1 × 10) |
| Cc1c(C(=O)N[C@H](C(=O)OCc2cccc(N3CCN(C)CC3)c2)C(C)C)ccc2c1B(O)OC2 [Compound 50] | – | 1/4 (1 × 10) | – | – | – | 0.32 | – | 12.7 | – | 0.48 | 8.6 | – | – | – | – | 4/4 (1 × 10) |
| Cc1c(C(=O)N[C@H](C(=O)OCC2CCC(F)(F)CC2)C(C)C)ccc2c1B(O)OC2 [Compound 71] | – | 3/4 (1 × 10) | – | – | – | 0.2 | – | 8.1 | – | 0.14 | 6.4 | – | – | 100 | – | 4/4 (1 × 10) |
| Cc1c(C(=O)N[C@H](C(=O)OCc2ccc(F)c(F)c2)C(C)C)ccc2c1B(O)OC2 [Compound 8] | 0/4 | 4/4 | – | unable to cure | – | 0.28 | – | 5.6 | – | 0.07 | 7.9 | – | – | 100 | – | 4/4 (1 × 10) |
| Cc1c(C(=O)N[C@H](C(=O)OCc2cccc(CN(C)C)c2)C(C)C)ccc2c1B(O)OC2 [Compound 51] | – | 0/4 (1 × 10) | – | – | – | 0.25 | – | 5 | – | 0.21 | 1.8 | – | – | – | – | 4/4 (1 × 10) |
